This is an account of results in patent US20080300221A1, “Contact Lens Care Composition” (priority 2005, published 2008).

The subject of experiment [1] is Acanthamoeba. To be noted: cited from earlier work.
The test system of experiment [2] is cysts of A. castellani. In words: Susceptibility test for Acanthamoeba cysts (viable cells on non-nutrient agar plates after soaking in contact lens solution). It counts as cell-based, A. castellanii. Details: key: +: viable cells; −: no viable cells. To be noted: after 8 hours soaking; 10^3 cysts; plates incubated at 30° C. for 14 days; Miltefosine alone tested at 80 μM. As for the experimental part:
The activity of various multi-purpose contact lens solutions (for cleaning, rinsing, storing and disinfecting a contact lens while the lens is not worn) was tested against cysts of A. castellani.
Contact lens disinfection solutions tested (Table 1) were purchased from local retail stores. In case of the H2O2 based systems, neutralization of the 3% hydrogen peroxide is achieved within 6 hours by a catalytic platinum disk which is located in the contact lens storage case according to the manufacturer's instructions. Miltefosine was dissolved in 5% Ethanol (2 mM stock solution) and tested at 80 μM in Acanthamoeba medium (PYG) or in contact lens disinfection medium.
A. castellanii, was isolated from a patient suffering from a severe Acanthamoeba keratitis. Isolation was achieved by inoculating corneal epithelium onto non-nutrient agar plates covered with a 48-h-old culture of Escherichia coli. The isolate was cloned by transferring a single cyst onto a fresh plate with a micromanipulator. Axenisation was achieved by harvesting cysts from parallel cultures and incubating them in 3% HCl overnight in order to eliminate coexisting bacteria. […] The cysts were harvested by centrifugation (500 g/7 minutes), resuspended in sterile 0.9% NaCl and counted in a BurkerTurk haemocytometer. […]

Consider `[H]/N=C(\N/C(=N/[H])NCCCCCCNC(=N)NC(=N)Nc1ccc(Cl)cc1)Nc1ccc(Cl)cc1` [chlorhexidine], for which the “Effectiveness against Acanthamoeba among contact lens disinfectants” value in experiment [1] was “most effective”.
With `CCCCCCCCCCCCCCCCOP(=O)([O-])OCC[N+](C)(C)C` [Miltefosine, 1-hexadecylphosphorylcholine], the “Viable Acanthamoeba cells after disinfection with commercially available disinfectants” value in experiment [2] is listed as “−”.
